In patent US20250018049A1, “COMPOUNDS FOR DEGRADING CYCLIN-DEPENDENT KINASE 2 VIA UBIQUITIN PROTEOSOME PATHWAY” (NIKANG THERAPEUTICS, INC., priority 2020, published 2025):

Experiments:
CDK2 [1] = biological target: T1, CDK2 (Homo sapiens, UniProt P24941); assay: NanoBRET CDK2 engagement assay; format: cell-based; design: expressed in transfected cells; conditions: OVCAR3 cells with stable CDK2-Luciferase vector, 24 hours treatment
Experimental: OVCAR3 cells with stable transfection of CDK2-Luciferase vector were seeded into 96-well plate at a density of 20,000 cells per well, 50 μL Opti-MEM medium supplemented with 1% FBS. Following morning, cells were treated with compounds of the disclosure, with starting concentration at 3 μM and ½ log dilution down to 0.3 nM for 24 hours at 37° C. DMSO treatment serves as control. Compound engagement was then measured using NanoBRE™ Kinase Kit from Promega (Part Number: CS1810C122, NanoBRET™ TE Kinase Kit #10, 1K) following manufacturer's instruction. For 24 hours treatment, tracer was added only for the last 2 hours. Briefly, 2.5 μL of complete 20× NanoBRET Tracer was added to the cells in suspension. Immediately prior to BRET measurements, prepare 3× Complete NanoBRET® Nano-Glo® Substrate in Opti-MEM without serum and phenol red. Without any delay, 25 μL per well of 3× Complete NanoBRET™ Nano-Glo® Substrate for a 96-well plate was added and mixed well. Signal was then read on a CLARIOstar® plate reader (measure donor emission (e.g., 450 nm) and acceptor emission (e.g., 610 nm or 630 nm) using a NanoBRET™-compatible luminometer. Target engagement was calculated with DMSO treatment as 100% signal, and IC50 was calculated by GraphPad Prism 9.

CDK2 [2] = biological target: T1, CDK2; assay: Phospho-Rb HTRF measurement in OVCAR3 cells (inhibition of CDK2); format: cell-based; design: High-Throughput Measurement of Cellular Endogenous CDK2; endogenous in cells; host or cells: OVCAR3; conditions: pRB(S807/811) assay, 24 h compound treatment
Experimental: Phosphorylation of RB protein at S780 and S807/811 were measured using HTRF phospho-RB cellular kits (Cat #64RBS780PEG and 64RBS807PEG) from Cisbio.
On Day 1, OVCAR3 or KYSE520 cells were seeded into 96-well tissue-culture treated plates at 20,000 cells/well in 200 μL and incubated overnight at 37° C. in CO2 atmosphere. On Day 2, the cells were treated with test compounds at concentrations from 0.3 to 10,000 nM using HP D300 digital dispenser. Twenty-four hours after compound treatment, cell culture media was removed by flicking the plate and tapping the plate against clean paper towel. Immediately 30 μL 1× lysis buffer was supplemented from the kit and the plate was incubated at room temperature on shaker for 30 min. After homogenization by pipetting up and down, 8 μL cell lysate from 96-well cell culture plate was transferred to 384-well small volume white detection plate. 2 μL premixed detection solution was added and the plate was covered with sealer. To prepare the detection solution, d2 conjugated-phospho-RB antibody and Eu-cryptate conjugated phosphor-RB antibody were diluted into detection buffer following manufacturer's instruction. Detection plates were incubated for 4 h at room temperature and read on ClarioStar (BMG Labtech) in TR-FRET mode (665 nM and 620 nM). The TR-FRET ratio (665 nM/620 nM) was plotted against the compound concentration and normalized to DMSO controls. Half maximal inhibition concentration (IC50) values are calculated with a four-parameter logistic fit using GraphPad Prism (version 8; La Jolla, CA).

SMILES | IC50 (CDK2 [1]) [nM] | IC50 (CDK2 [2]) [nM]
CN(CCCOCCCc1cccc2c1n(C)c(=O)n2C1CCC(=O)NC1=O)S(=O)(=O)N1CCC(Nc2ncc3ccc(=O)n(C4CCCC4)c3n2)CC1 (centres unmarked) [Compound 19, 4-((8-cyclopentyl-7-oxo-7,8-dihydropyrido[2,3-d]pyrimidin-2-yl)amino)-N-(3-(3-(1-(2,6-dioxo-piperidin-3-yl)-3-methyl-2-oxo-2,3-dihydro-1H-benzo[d]imidazol-4-yl)propoxy)propyl)-N-methylpiperidine-1-sulfonamide] | 253 | 707
CN(C1CCN(Cc2cccc3c2n(C)c(=O)n3C2CCC(=O)NC2=O)CC1)S(=O)(=O)N1CCC(Nc2ncc3ccc(=O)n(C4CCCC4)c3n2)CC1 (centres unmarked) [Compound 20, 4-((8-cyclopentyl-7-oxo-7,8-dihydropyrido[2,3-d]pyrimidin-2-yl)amino)-N-(1-((1-(2,6-dioxo-piperidin-3-yl)-3-methyl-2-oxo-2,3-dihydro-1H-benzo[d]imidazol-4-yl)methyl)piperidin-4-yl)-N-methylpiperidine-1-sulfonamide] | 127 | 1170
O=C1CCC(N2C(=O)c3ccc(CN4CC(Oc5cccc(S(=O)(=O)N6CCC(Nc7ncc8ccc(=O)n(C9CCCC9)c8n7)CC6)c5)C4)cc3C2=O)C(=O)N1 (centres unmarked) [Compound 17, 5-((3-(3-((4-((8-cyclopentyl-7-oxo-7,8-dihydro-pyrido[2,3-d]pyrimidin-2-yl)amino)piperidin-1-yl)sulfonyl)phenoxy)azetidin-1-yl)methyl)-2-(2,6-dioxopiperidin-3-yl)isoindoline-1,3-dione] | 450 | 245
CN(C1CCC(Nc2cccc3c2C(=O)N(C2CCC(=O)NC2=O)C3=O)CC1)S(=O)(=O)N1CCC(Nc2ncc3ccc(=O)n(C4CCCC4)c3n2)CC1 (centres unmarked) [Compound 15, 4-((8-cyclopentyl-7-oxo-7,8-dihydropyrido[2,3-d]pyrimidin-2-yl)amino)-N-(4-((2-(2,6-dioxo-piperidin-3-yl)-1,3-dioxoisoindolin-4-yl)amino)-cyclohexyl)-N-methylpiperidine-1-sulfonamide] | 356 | 2020
O=C1CCC(N2C(=O)c3cccc(NC(=O)COCCOCCOCCOCCNS(=O)(=O)N4CCC(Nc5ncc6ccc(=O)n(C7CCCC7)c6n5)CC4)c3C2=O)C(=O)N1 (centres unmarked) [Compound 26, 14-((4-((8-cyclopentyl-7-oxo-7,8-dihydro-pyrido[2,3-d]pyrimidin-2-yl)amino)piperidine)-1-sulfonamido)-N-(2-(2,6-dioxopiperidin-3-yl)-1,3-dioxoisoindolin-4-yl)-3,6,9,12-tetraoxatetradecan-amide] | – | 6090
O=C1CCC(N2Cc3cc(N4CCC(Oc5cccc(S(=O)(=O)N6CCC(Nc7ncc8ccc(=O)n(C9CCCC9)c8n7)CC6)c5)CC4)ccc3C2=O)C(=O)N1 (centres unmarked) [Compound 33, 3-(5-(4-(3-((4-((8-cyclopentyl-7-oxo-7,8-dihydro-pyrido[2,3-d]pyrimidin-2-yl)amino)piperidin-1-yl)sulfonyl)phenoxy)piperidin-1-yl)-1-oxoiso-indolin-2-yl)piperidine-2,6-dione] | – | 313
O=C1CCC(N2C(=O)c3cccc(NCCOCCOCCOCCNCCCS(=O)(=O)N4CCC(Nc5ncc6ccc(=O)n(C7CCCC7)c6n5)CC4)c3C2=O)C(=O)N1 (centres unmarked) [Compound 25, 4-((15-((4-((8-cyclopentyl-7-oxo-7,8-dihydro-pyrido[2,3-d]pyrimidin-2-yl)amino)piperidin-1-yl)sulfonyl)-3,6,9-trioxa-12-azapentadecyl)-amino)-2-(2,6-dioxopiperidin-3-yl)isoindoline-1,3-dione] | – | 1070

The next lines start with the values.

IC50 (CDK2 [1]) [nM] | IC50 (CDK2 [2]) [nM] | SMILES
2160 | 2920 | N#Cc1cc2cnc(NC3CCN(S(=O)(=O)c4cccc(CN5CCN(c6cc7c(cc6F)C(=O)N(C6CCC(=O)NC6=O)C7=O)CC5)c4)CC3)nc2n(C2CCCC2)c1=O (centres unmarked) [Compound 46, 8-cyclopentyl-2-((1-((3-((4-(2-(2,6-dioxopiperidin-3-yl)-6-fluoro-1,3-dioxoisoindolin-5-yl)piperazin-1-yl)methyl)phenyl)sulfonyl)piperidin-4-yl)-amino)-7-oxo-7,8-dihydropyrido[2,3-d]-pyrimidine-6-carbonitrile]
257 | 438 | O=C1CCC(N2C(=O)c3ccc(CN4CC(Oc5ccc(S(=O)(=O)N6CCC(Nc7ncc8ccc(=O)n(C9CCCC9)c8n7)CC6)cc5)C4)cc3C2=O)C(=O)N1 (centres unmarked) [compound 8, 5-((3-(4-((4-((8-cyclopentyl-7-oxo-7,8-dihydro-pyrido[2,3-d]pyrimidin-2-yl)amino)piperidin-1-yl)sulfonyl)phenoxy)azetidin-1-yl)methyl)-2-(2,6-dioxopiperidin-3-yl)isoindoline-1,3-dione]
99.9 | 1120 | O=C1CCC(N2C(=O)c3ccc(N4CC(Oc5ccc(S(=O)(=O)N6CCC(Nc7ncc8ccc(=O)n(C9CCCC9)c8n7)CC6)cc5)C4)cc3C2=O)C(=O)N1 (centres unmarked) [compound 7, 5-(3-(4-((4-((8-cyclopentyl-7-oxo-7,8-dihydro-pyrido[2,3-d]pyrimidin-2-yl)amino)piperidin-1-yl)sulfonyl)phenoxy)azetidin-1-yl)-2-(2,6-dioxopiperidin-3-yl)isoindoline-1,3-dione]
150 | 27 | O=C1CCC(N2Cc3cc(CN4CC(Oc5cccc(S(=O)(=O)N6CCC(Nc7ncc8ccc(=O)n(C9CCCC9)c8n7)CC6)c5)C4)ccc3C2=O)C(=O)N1 (centres unmarked) [Compound 67, 3-(5-((3-(3-((4-((8-cyclopentyl-7-oxo-7,8-dihydro-pyrido[2,3-d]pyrimidin-2-yl)amino)piperidin-1-yl)sulfonyl)phenoxy)azetidin-1-yl)methyl)-1-oxoisoindolin-2-yl)piperidine-2,6-dione]
– | 100 | O=C1CCC(N2Cc3cc(N4CC(Oc5cccc(S(=O)(=O)N6CCC(Nc7ncc8ccc(=O)n(C9CCCC9)c8n7)CC6)c5)C4)ccc3C2=O)C(=O)N1 (centres unmarked) [Compound 74, 3-(5-(3-(3-((4-((8-cyclopentyl-7-oxo-7,8-dihydro-pyrido[2,3-d]pyrimidin-2-yl)amino)piperidin-1-yl)sulfonyl)phenoxy)azetidin-1-yl)-1-oxoisoindolin-2-yl)piperidine-2,6-dione]
499 | 1420 | O=C1CCC(N2Cc3cc(N4C5CCC4CN(Cc4cccc(S(=O)(=O)N6CCC(Nc7ncc8ccc(=O)n(C9CCCC9)c8n7)CC6)c4)C5)ccc3C2=O)C(=O)N1 (centres unmarked) [Compound 52, 3-(5-(3-(3-((4-((8-cyclopentyl-7-oxo-7,8-dihydropyrido[2,3-d]pyrimidin-2-yl)amino)-piperidin-1-yl)sulfonyl)benzyl)-3,8-diazabicyclo-[3.2.1]octan-8-yl)-1-oxoisoindolin-2-yl)piperidine-2,6-dione]
– | 405 | CC1(O)CCCC1n1c(=O)ccc2cnc(NC3CCN(S(=O)(=O)c4cccc(CN5CCN(c6cc7c(cc6F)C(=O)N(C6CCC(=O)NC6=O)C7=O)CC5)c4)CC3)nc21 (centres unmarked) [Compound 44, 2-(2,6-dioxopiperidin-3-yl)-5-fluoro-6-(4-(3-((4-((8-(2-hydroxy-2-methylcyclopentyl)-7-oxo-7,8-dihydropyrido[2,3-d]pyrimidin-2-yl)amino)-piperidin-1-yl)sulfonyl)benzyl)piperazin-1-yl)-isoindoline-1,3-dione]
